“Also recorded” adds a separate entry of the source. Read-outs that look alike come from different tables or passages of the source.
Tests used:
[1] = tested on: human monocytic leukemia THP-1 cell line; settings: THP-1 cells; assessed in this line formerly; cited from earlier work
[2] = tested on: M. avium subsp. paratuberculosis; assay: MTT assay on mycobacteria; assay type: cell-based, Mycobacterium avium subsp. paratuberculosis; settings: lowest tested concentration 8 µg/mL (ca. 30 µmol/L), four hours of incubation
Experimental: Additionally, a standard MTT assay was performed on these same compounds. The MTT assay is a well-characterized method of assessing cell growth through measurement of respiration.
For the MTT assay, the same 96-well plate set up and incubation conditions listed above were used. After the incubation period, a 10% addition of MTT reagent was mixed into each well and incubated at 37 °C for 4 h. The reagent and media were then aspirated from the wells to which 50 µL DMSO was then added and plates were read at 550 nm.

[3] = Lipophilicity determination by RP-HPLC (capacity factor, log k); assay type: physicochemical; settings: end-capped C18, isocratic MeOH 60%/H2O 40%
Experimental: Lipophilicity is a property that has a major effect on bioavailability, biotransformation as well as pharmacological activity, because drugs cross biological membranes through passive transport, which strongly depends on their lipophilicity. Lipophilicity of the studied compounds was determined by RP‑HPLC as capacity factor logarithm (log k). The procedure was performed under isocratic conditions with methanol as an organic modifier in the mobile phase using an end-capped non-polar C18 stationary RP column. The results of ring-substituted naphthalene-1-carboxanilides 1–8c are shown in Table 1 and illustrated in Figure 1. […] Lipophilicity was also calculated as log P using ACD/Percepta ver. 2012 (Advanced Chemistry Development, Inc., Toronto, ON, Canada).
A HPLC system Agilent 1200 equipped with DAD detector (Agilent, USA) was used. A chromatographic column Symmetry® C18 5 μm, 4.6 × 250 mm, Part No. WAT054275 (Waters Corp., Milford, MA, USA) was used. The HPLC separation process was monitored and evaluated by EZChrom Elite software ver. 3.3.2 (Agilent, USA). Isocratic elution by a mixture of MeOH p.a. (60%) and H2O-HPLC Mili-Q grade (40%) as a mobile phase was used. The total flow of the column was 1.0 mL/min, injection 20 μL, column temperature 40 °C, and sample temperature 10 °C. The detection wavelength 210 nm was chosen. The KI methanolic solution was used for the dead time (tD) determination. Retention times (tR) were measured in minutes. The capacity factors k were calculated according to formula k = (tR − tD)/tD, where tR is the retention time of the solute, whereas tD denotes the dead time obtained using an unretained analyte. Log k, calculated from the capacity factor k, is used as the lipophilicity index converted to log P scale.

[4] = tested on: Mycobacterium avium subsp. paratuberculosis CIT03; assay: In vitro antimycobacterial evaluation (MIC/IC90, alamarBlue); assay type: cell-based; settings: for antimycobacterial activity relative to ciprofloxacin / antimycobacterial activity relative to rifampicin: M. avium subsp. paratuberculosis, comparison of MICs; for MIC: Mycobacterium avium
Experimental: The MIC/IC90 value is routinely and widely used in bacterial assays and is a standard detection limit according to the Clinical and Laboratory Standards Institute.
A well-characterized clinical isolate of Mycobacterium avium subsp. paratuberculosis (CIT03) was grown in Middlebrook broth (MB), supplemented with Oleic-Albumin-Dextrose-Catalase supplement (OADC, Becton, Dickinson and Comp., Franklin Lakes, NJ, USA) and mycobactin J (2 µg/mL). Identification of this isolate was performed using biochemical and molecular protocols. At log phase growth, a culture sample (10 mL) was centrifuged at 15,000 rpm/20 min using a bench top centrifuge (Model CR 4-12, Jouan Inc., Winchester, VA, USA). Following removal of the supernatant, the pellet was washed in fresh Middlebrook 7H9GC broth and re-suspended in fresh supplemented MB (10 mL). The turbidity was adjusted to match McFarland standard No. 1 (3 × 10^8 cfu) with MB broth. A further 1:20 dilution of the culture was then performed in MB broth. The antimicrobial susceptibility of the mycobacterial species was investigated in a 96-well plate format. In these experiments, sterile deionized water (300 µL) was added to all outer-perimeter wells of the plates to minimize evaporation of the medium in the test wells during incubation. Each evaluated compound (100 µL) was incubated with the mycobacterial species (100 µL). Dilutions of each compound were prepared in duplicate. For all synthesized compounds, final concentrations ranged from 1,000 µg/mL to 8 µg/mL. All compounds were prepared in DMSO and subsequent dilutions were made in supplemented MB. The plates were sealed with parafilm and incubated at 37 °C for 11 days.
Following incubation, a 10% addition of alamarBlue (AbD Serotec, Kidlington, UK) was mixed into each well and readings at 570 nm and 600 nm were taken, initially for background subtraction and subsequently after 24 h re-incubation. […] For non-interfering compounds, a blue colour in the well was interpreted as an absence of growth and a pink colour was scored as growth. Furthermore percent reduction of alamarBlue was calculated to generate quantitative data on cell viability during exposure to antimycobacterial compounds over a period of 5 days. The formula used to determine percent reduction of alamarBlue has been standardized for colorimetric analysis by Abd Serotec.
The MIC value is routinely and widely used in bacterial assays and is a standard detection limit according to the Clinical and Laboratory Standards Institute.

[5] = tested on: human monocytic leukemia THP-1 cell line; assay: In vitro cytotoxicity assay (LDH); settings: for LD50: human, 24 h; for lethal effect / toxicity on THP-1 cells: treatment with 30 μmol/L
Experimental: Human monocytic leukemia THP-1 cells were obtained from the European Collection of Cell Cultures (ECACC, Salisbury, UK; Methods of characterization: DNA Fingerprinting (Multilocus probes) and isoenzyme analysis). These cells were routinely cultured in RPMI 1640 (Lonza, Verviers, Belgium) medium supplemented with 10% fetal bovine serum (FBS, Sigma-Aldrich, St. Louis, MO, USA), 2% L-glutamine, 1% penicillin and streptomycin (Lonza) at 37 °C with 5% CO2. Cells were passaged at approximately one-week intervals. Cells were routinely tested for the absence of mycoplasma (Hoechst 33258 staining method). The tested compounds were dissolved in DMSO (Sigma-Aldrich) and added in five increasing concentrations to the cell suspension in the culture medium. The maximum concentration of DMSO in the assays never exceeded 0.1%. Subsequently, the cells were incubated for 24 h at 37 °C with 5% CO2 to various compound concentrations ranging from […] in RPMI 1640 medium. Cell toxicity was determined using a Cytotoxicity Detection Kit^PLUS Lactate dehydrogenase (LDH) assay kit (Roche Diagnostics, Mannheim, Germany) according to the manufacturer’s instructions, as described previously. For LDH assays, cells were seeded into 96-well plates (5 × 10^4 cells/well in 100 μL culture medium) in triplicate in serum-free RPMI 1640 medium, and measurements at 492 nm wavelength (Synergy 2 Multi-Mode Microplate Reader, BioTek, Winooski, VT, USA) were taken 24 h after the treatment with tested compounds. The median lethal dose values, LD50, were deduced through the production of a dose-response curve. All data were evaluated using GraphPad Prism 5.00 software (GraphPad Software, San Diego, CA, USA).
LDH Test Principle: The LDH activity is determined by a coupled enzymatic reaction, whereby the tetrazolium salt INT is reduced to formazan. An increase in the amount of dead or plasma membrane damaged cells results in an increase of LDH enzyme activity in the culture supernatant. This increase in the amount of enzyme activity in the supernatant directly correlates to the amount of formazan formed during a limited time period.

physchem = settings: aqueous buffer, kinetic from dmso stock
[6] = tested on: photosynthetic electron transport (PET) in isolated spinach chloroplasts; assay: Inhibition of photosynthetic electron transport (PET) in isolated spinach chloroplasts; assay type: biochemical, Spinacia oleracea L.; settings: DCPIP photoreduction
Experimental: The PET-inhibiting activity was expressed by IC50 value, i.e., compound concentration in mol/L causing 50% inhibition of PET.
Chloroplasts were prepared from spinach (Spinacia oleracea L.) according to Masarovicova and Kralova. The inhibition of photosynthetic electron transport (PET) in isolated spinach chloroplasts was determined spectrophotometrically (Genesys 6, Thermo Scientific, USA), using an artificial electron acceptor 2,6-dichlorophenol-indophenol (DCIPP) according to Kralova et al., and the rate of photosynthetic electron transport was monitored as a photoreduction of DCPIP. The measurements were carried out in phosphate buffer (0.02 mol/L, pH 7.2) containing sucrose (0.4 mol/L), MgCl2 (0.005 mol/L) and NaCl (0.015 mol/L). The chlorophyll content was 30 mg/L in these experiments and the samples were irradiated (~100 W/m^2 with 10 cm distance) with a halogen lamp (250 W) using a 4 cm water filter to prevent warming of the samples (suspension temperature 22 °C). The studied compounds were dissolved in DMSO due to their limited water solubility. […] The inhibitory efficiency of the studied compounds was expressed by IC50 values, i.e., by molar concentration of the compounds causing 50% decrease in the oxygen evolution rate relative to the untreated control.

[7] = 264 h, clinical isolate CIT03, 11 days at 37 °C, alamarBlue, MIC = 90% or greater reduction of growth, read-out: MAP MIC/IC90
[8] = clinical isolate CIT03, read-out: MIC
[9] = clinical isolate CIT03, 11 days at 37 °C, alamarBlue, MIC = 90% or greater reduction of growth

SMILES	LD50 [1] [µmol/L]	reduction in activity (MTT) [2]	log k [3]	antimycobacterial activity relative to ciprofloxacin [4]	antimycobacterial activity relative to rifampicin [4]	MIC [4, 7] [µM]	MIC [4, 8] [µg/mL]	MAP MIC/IC90 [4, 9] [µM]	LD50 [5] [µmol/L]	lethal effect / toxicity on THP-1 cells [5]	solubility (physchem) [µM]	IC50 [6] [µM]
CC[C@@]1(O)C(=O)OCc2c1cc1n(c2=O)Cc2cc3ccccc3nc2-1 [camptothecin]	0.16 ± 0.07	–	–	–	–	–	–	–	–	–	–	–
COc1cccc(NC(=O)c2cccc3ccccc23)c1 [Compound 2b, N-(3-Methoxyphenyl)naphthalene-1-carboxamide]	–	more than 80%	0.6087	three-fold higher	two-fold higher	54	15	54	>30	did not lead to significant lethal effect; also recorded: insignificant toxicity	≤ 30	–
O=C(Nc1cccc(F)c1)c1cccc2ccccc12 [Compound 4b, N-(3-Fluorophenyl)naphthalene-1-carboxamide]	–	–	0.7204	three-fold higher	two-fold higher	57	15	57	>30	did not lead to significant lethal effect; also recorded: insignificant toxicity	≤ 30	131
COc1ccccc1NC(=O)c1cccc2ccccc12 [Compound 2a, N-(2-Methoxyphenyl)naphthalene-1-carboxamide]	–	–	0.8013	three-fold higher	two-fold higher	54	–	–	>30	did not lead to significant lethal effect; also recorded: insignificant toxicity	≤ 30	–
Cc1cccc(NC(=O)c2cccc3ccccc23)c1 [Compound 3b, N-(3-Methylphenyl)naphthalene-1-carboxamide]	–	–	0.7624	three-fold higher	two-fold higher	57	–	–	>30	did not lead to significant lethal effect; also recorded: insignificant toxicity	≤ 30	136

From publication PMC6270837, “Preparation and Biological Properties of Ring-Substituted Naphthalene-1-Carboxanilides” (Molecules, 2014)
